Key:
[1] = In vivo pharmacokinetic studies (plasma concentration of prototype drug by LC/MS/MS after gavage); conditions: ICR male mice fasted overnight, 1 mg/mL suspension in 5% DMSO+30% HP-β-CD, plasma 0-24 h
Protocol: A proper amount of compound was weighed and 1 mg/mL suspension was prepared using the weighed compound and 5% DMSO+30% HP-β-CD. After ICR male mice fasted overnight, they were administered by gavage and their blood was collected from the jugular venous plexus at different time points of 0, 5 min, 0.25 h, 0.5 h, 1 h, 2 h, 4 h, 8 h, and 24 h. After anticoagulation with EDTA-K2, plasma was separated by centrifugation, and the concentrations of prototype drug in plasma was determined by LC/MS/MS.

[2] = Stability study (lighting, high-temperature, high-humidity, acceleration, intermediate conditions, long-term tests); type: physicochemical; conditions: light 4,500 lx; 60° C.; 25° C. RH 92.5% and 72.5%; 40° C./75% RH; 30° C./65% RH; 25° C./60% RH
Excerpt: A proper amount of compound was weighed and placed in a suitable white transparent open container (such as a weighing bottle or petri dish), the container was placed in a lighting stability test chamber for drugs at an illumination of 4,500 lx±500 lx. The samples were taken for testing 5, 10, and 30 days after the placement.
A proper amount of compound was weighed and placed in a suitable open container (such as a weighing bottle or culture dish), the container was placed in an electric heated air-drying oven at 60° C. The samples were taken for testing 5, 10, and 30 days after the placement.
A proper amount of compound was weighed and placed in suitable open container (such as a weighing bottle or petri dish), the container was placed in a KNO3 saturated solution desiccator at a temperature of 25° C.±2° C. and a relative humidity of 92.5% and 72.5% respectively. The samples were taken for testing 5, 10, and 30 days after the placement.
After packaging an appropriate amount of the compound with inner packaging (pharmaceutical low-density polyethylene film, bag) and outer packaging (polyester/aluminum/polyethylene pharmaceutical composite film, bag), the compound was tested at a temperature of 40° C.±2° C. and a relative humidity of 75%±5%. […]

- pharmacokinetic properties [1]: good pharmacokinetic properties
- physical and chemical stability [2]: good physical and chemical stability
SMILES: C[C@@H](COCc1cc2n(n1)CCN(c1ncc(C(F)(F)F)cn1)C2)Nc1cn[nH]c(=O)c1C(F)(F)F [crystalline form A, (S)-4-(Trifluoromethyl)-5-((1-((5-(5-(trifluoromethyl)pyrimidin-2-yl)-4,5,6,7-tetrahydropyrazolo[1,5-a]pyrazin-2-yl)methoxy)propan-2-yl)amino)pyridazin-3(2H)-one]
